Experiment [1] deals with T1, C. albicans Aox2 (rAox2) (Candida albicans, UniProt Q9UV71).
T1 sequence (Q9UV71 1-365): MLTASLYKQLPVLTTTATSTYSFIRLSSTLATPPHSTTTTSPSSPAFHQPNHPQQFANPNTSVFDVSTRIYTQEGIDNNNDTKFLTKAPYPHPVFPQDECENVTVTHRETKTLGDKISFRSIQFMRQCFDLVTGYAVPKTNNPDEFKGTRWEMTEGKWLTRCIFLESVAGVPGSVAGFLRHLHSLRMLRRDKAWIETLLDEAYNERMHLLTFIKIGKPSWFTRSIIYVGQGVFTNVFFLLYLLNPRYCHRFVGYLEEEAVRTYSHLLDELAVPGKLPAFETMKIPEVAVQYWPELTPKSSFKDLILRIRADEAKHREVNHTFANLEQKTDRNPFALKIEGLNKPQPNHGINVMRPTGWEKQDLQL
Kind of experiment: NADH oxidation at […] nm, E. coli membranes. The format is biochemical.

Experiment [2] addresses T2, cytochrome bc1 complex (Candida albicans, UniProt A0A1D8PJX3+P0C8L0).
T2 construct: gene COB; native multi-subunit complex III; preparation and assay not given; with Cytochrome c1, heme protein, mitochondrial
T2 sequence (P0C8L0 1-387): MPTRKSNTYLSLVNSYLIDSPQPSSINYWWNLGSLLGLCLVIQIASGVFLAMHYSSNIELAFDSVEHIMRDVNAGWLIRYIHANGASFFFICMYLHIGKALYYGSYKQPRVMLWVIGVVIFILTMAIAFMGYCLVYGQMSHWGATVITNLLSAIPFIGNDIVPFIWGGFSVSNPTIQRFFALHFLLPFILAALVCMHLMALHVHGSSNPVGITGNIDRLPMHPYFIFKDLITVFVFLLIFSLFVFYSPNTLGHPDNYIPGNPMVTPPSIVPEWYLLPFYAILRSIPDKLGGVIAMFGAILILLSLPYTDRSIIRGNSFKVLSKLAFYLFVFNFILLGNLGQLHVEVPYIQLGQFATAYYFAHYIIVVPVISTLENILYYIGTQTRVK
T2 sequence (A0A1D8PJX3 30-213): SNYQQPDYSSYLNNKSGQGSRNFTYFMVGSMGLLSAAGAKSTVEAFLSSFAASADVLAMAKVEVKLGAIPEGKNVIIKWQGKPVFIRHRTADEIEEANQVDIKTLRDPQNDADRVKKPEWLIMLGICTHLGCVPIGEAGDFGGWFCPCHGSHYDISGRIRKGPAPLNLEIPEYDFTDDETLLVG
T2 sequence (A0A1D8PHA3 43-288 partner): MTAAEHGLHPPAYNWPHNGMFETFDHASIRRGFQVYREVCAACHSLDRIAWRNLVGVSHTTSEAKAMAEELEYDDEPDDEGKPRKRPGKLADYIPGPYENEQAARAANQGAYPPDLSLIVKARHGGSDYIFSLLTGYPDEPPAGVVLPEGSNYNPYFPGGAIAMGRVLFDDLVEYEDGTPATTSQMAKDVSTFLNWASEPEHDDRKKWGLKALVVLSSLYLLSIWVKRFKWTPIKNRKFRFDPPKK
The experiment in a line: cytochrome bc1 activity, dose response (assay not described). The format is cell-based. From the text: cytochrome bc1 activity, dose response (assay not described) on cytochrome bc1 complex

The IC50 is the point on the concentration scale where inhibition reaches its midpoint. High values mean weaker potency, low ones greater potency.

Like-named read-outs stand apart in the source and are kept apart here.

For the compound `CC(C)=CCC/C(C)=C/Cc1c(O)c(Br)c(C)c(C=O)c1O` [ISSF31, (E)-3-Bromo-5-(3,7-dimethylocta-2,6-dien-1-yl)-4,6-dihydroxy-2-methylbenzaldehyde], the concentration for half-maximal inhibition (IC50) in experiment [1] is 0.0211 ± 0.008 µM; in experiment [2] it was 1.2 ± 0.6 µM.

Consider `CC(C)=CCC/C(C)=C/Cc1c(O)c(Cl)c(C)c(C=O)c1O` [Colletochlorin B], for which the IC50 in experiment [1] turned out to be 0.0073 ± 0.0024 µM; in experiment [2], 1.1 ± 0.1 µM.

Turning to `Cc1c(Br)c(O)c(CCCCCCCC[P+](c2ccccc2)(c2ccccc2)c2ccccc2)c(O)c1C=O` [ALTOX102, (8-(3-Bromo-5-formyl-2,6-dihydroxy-4-methylphenyl)octyl)triphenylphosphonium bromide], the IC50 in experiment [1] is 11.1 ± 1 µM; in experiment [2], 5.8 ± 1.4 µM.

As to `Cc1c(Br)c(O)c(CCCCCCCCCCCC[P+](c2ccccc2)(c2ccccc2)c2ccccc2)c(O)c1C=O` [ALTOX094, (12-(3-Bromo-5-formyl-2,6-dihydroxy-4-methylphenyl)dodecyl)triphenylphosphonium bromide], the 50% inhibitory concentration (IC50) in experiment [1] (NADH, 65 mM MOPS pH 7.5, 1 mM KCN, 10 mM GMP, 10 min preincubation) was found to be 15 ± 1 µM; in experiment [2], 9.1 ± 1.2 µM.

Source of the values: PMC11832467, “Novel mitochondrial-targeted alkyl chains act as fungal specific inhibitors of C. neoformans” (Frontiers in Microbiology, 2025).
